Results taken from the supplement of paper PMC4862054.

Assays:
Settings in all cases: incubation time: 72 h
BT-474 [1] = test: normalised response (% of control), CellTiter-Glo; higher = more viable cells (100 = DMSO, 0 = benzethonium chloride kill control)
How it was run: (§1)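 In 384-well plates holding compound at 5 concentrations in 10-fold steps over a 10,000-fold range specific to each compound, breast cancer cell lines were seeded as 20 µl suspension and incubated 72 h. CellTox Green fluorescence was measured at 485/520 nm, after which CellTiter-Glo luminescence was measured following 10 min at room temperature. Plate signals were normalised to 0.1 % DMSO (100) and a positive kill control (0), and each value is the normalised signal at a single concentration.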

BT-549 [2] = test: as above
How it was run: as §1

CAL-120 [3] = test: as above
How it was run: as §1

CAL-148 [4] = test: as above
How it was run: as §1

CAL-51 [5] = test: as above
How it was run: as §1

CAL-85-1 [6] = test: as above
How it was run: as §1

DU-4475 [7] = test: as above
How it was run: as §1

HCC1143 [8] = test: as above
How it was run: as §1

HCC1599 [9] = test: as above
How it was run: as §1

HCC1937 [10] = test: as above
How it was run: as §1

HDQ-P1 [11] = test: as above
How it was run: as §1

Hs578T [12] = test: as above
How it was run: as §1

MCF-10A = test: as above
How it was run: as §1

MDA-MB-231 [13] = test: as above
How it was run: as §1

MDA-MB-436 [14] = test: as above
How it was run: as §1

MDA-MB-453 [15] = test: as above
How it was run: as §1

MDA-MB-468 [16] = test: as above
How it was run: as §1

MFM-223 [17] = test: as above
How it was run: as §1

SK-BR-3 [18] = test: as above
How it was run: as §1

BT-474 [19] = test: normalised viability (% of control), CellTiter-Blue; higher = more viable cells (100 = DMSO, 0 = benzethonium chloride kill control)
How it was run: (§2)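 Vehicle (100) and a positive kill control (0) anchored the normalisation of each plate, and Z'-factor was used for quality control. Breast cancer cell lines in 20 µl suspension were incubated 72 h over compound in 5 µl medium in 384-well plates, followed by CellTiter-Blue at 560/590 nm. The value is normalised viability at a single listed concentration of the series.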

BT-549 [20] = test: as above
How it was run: as §2

CAL-120 [21] = test: as above
How it was run: as §2

CAL-148 [22] = test: as above
How it was run: as §2

CAL-51 [23] = test: as above
How it was run: as §2

CAL-85-1 [24] = test: as above
How it was run: as §2

DU-4475 [25] = test: as above
How it was run: as §2

HCC1143 [26] = test: as above
How it was run: as §2

HCC1599 [27] = test: as above
How it was run: as §2

HCC1937 [28] = test: as above
How it was run: as §2

HDQ-P1 [29] = test: as above
How it was run: as §2

Hs578T [30] = test: as above
How it was run: as §2

MDA-MB-231 [31] = test: as above
How it was run: as §2

MDA-MB-436 [32] = test: as above
How it was run: as §2

MDA-MB-453 [33] = test: as above
How it was run: as §2

MDA-MB-468 [34] = test: as above
How it was run: as §2

MFM-223 [35] = test: as above
How it was run: as §2

SK-BR-3 [36] = test: as above
How it was run: as §2

Compound	normalised response (BT-474 [1]) [%]	normalised response (BT-549 [2]) [%]	normalised response (CAL-120 [3]) [%]	normalised response (CAL-148 [4]) [%]	normalised response (CAL-51 [5]) [%]	normalised response (CAL-85-1 [6]) [%]	normalised response (DU-4475 [7]) [%]	normalised response (HCC1143 [8]) [%]	normalised response (HCC1599 [9]) [%]	normalised response (HCC1937 [10]) [%]	normalised response (HDQ-P1 [11]) [%]	normalised response (Hs578T [12]) [%]	normalised response (MCF-10A) [%]	normalised response (MDA-MB-231 [13]) [%]	normalised response (MDA-MB-436 [14]) [%]	normalised response (MDA-MB-453 [15]) [%]	normalised response (MDA-MB-468 [16]) [%]	normalised response (MFM-223 [17]) [%]	normalised response (SK-BR-3 [18]) [%]	normalised viability (BT-474 [19]) [%]	normalised viability (BT-549 [20]) [%]	normalised viability (CAL-120 [21]) [%]	normalised viability (CAL-148 [22]) [%]	normalised viability (CAL-51 [23]) [%]	normalised viability (CAL-85-1 [24]) [%]	normalised viability (DU-4475 [25]) [%]	normalised viability (HCC1143 [26]) [%]	normalised viability (HCC1599 [27]) [%]	normalised viability (HCC1937 [28]) [%]	normalised viability (HDQ-P1 [29]) [%]	normalised viability (Hs578T [30]) [%]	normalised viability (MDA-MB-231 [31]) [%]	normalised viability (MDA-MB-436 [32]) [%]	normalised viability (MDA-MB-453 [33]) [%]	normalised viability (MDA-MB-468 [34]) [%]	normalised viability (MFM-223 [35]) [%]	normalised viability (SK-BR-3 [36]) [%]
Cn1c(Nc2ccc(C(F)(F)F)cc2)nc2cc(Oc3ccnc(-c4ncc(C(F)(F)F)[nH]4)c3)ccc21 [RAF265] (0.1 nM)	107	104	99	110	73.6	102	107	106	112	102	103	106	107	103	104	118	102	108	110	102	117	86.2	95.6	94.2	87.7	105	104	119	99	80.2	111	117	104	103	104	96	89.5
CNCc1ccc(-c2[nH]c3cc(F)cc4c3c2CCNC4=O)cc1 [Rucaparib] (1 nM)	92.6	96.9	96.3	98.2	117	100	99.4	94.1	98.4	97.8	97.2	102	84.6	99.1	98.5	98.2	96.8	95.9	82.4	109	95.3	79.5	96.4	113	88.6	111	103	122	108	68.1	97.4	105	104	95.2	110	91.6	100
N[C@@H](CSC(c1ccccc1)(c1ccccc1)c1ccccc1)C(=O)O [S-trityl-L-cysteine] (4 nM)	105	96.5	106	103	81	101	95.7	97	87.5	92	103	95.5	97.6	100	85.6	107	101	96.9	99.6	91.1	85.8	115	112	91.3	122	116	143	108	89	96.6	106	104	109	88.6	101	105	88.2
CN(N=O)C(=O)N[C@@H](C=O)[C@@H](O)[C@H](O)[C@H](O)CO [Streptozocin] (1 nM)	98.8	102	103	102	80.8	94.2	95.7	105	96.4	104	104	106	113	108	104	92.1	97.5	105	106	81	102	101	111	110	91.4	104	99	132	99.1	116	103	106	100	111	102	92.8	106
